# Results reported in PubChem BioAssay AID1159562 (GlaxoSmithKline (GSK), 2015).
# Active and inactive are the calls of the source. The rule behind the calls is not given here.
# Tested on: Trypanosoma brucei growth inhibition, luminescence
# Assay: antitrypanosomal activity against T. brucei – luminescence (AID 1159562);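 note: parasites grew with compound for 24 h before the luminescence read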
row,Compound,IC50
1,CC(Cn1ccnc1)NC(=O)COc1ccc(Cl)c(Cl)c1 (stereo not given),> 40000 nM (inactive)
2,CN(C)S(=O)(=O)c1ccc(Cl)c(C(=O)Nc2nc(-c3ccccn3)cs2)c1,400 nM
3,O=C(Nc1nc2ccccc2[nH]1)c1ccc2nc[nH]c2c1,> 40000 nM (inactive)
4,N#Cc1cc(-c2ccnc(Nc3cccc(CN4CCOCC4)c3)n2)ccc1NCCN,1300 nM
5,COc1ccc(S(=O)(=O)NC(C)C)cc1Nc1ncc(-c2cccc(F)c2)cn1,> 40000 nM (inactive)
6,Cc1ncsc1CNc1cnc(-c2ccc3c(c2)OCCO3)c(-c2cnn(C)c2)c1,200 nM
7,CN(Cc1nc2c(C(=O)N3CCN(Cc4ccccc4)CC3)cccc2[nH]1)C1CCCc2cccnc21 (stereo not given),1000 nM
8,O=C1CSC(c2cccnc2)N1c1ccc(Cl)cc1Cl (stereo not given),> 40000 nM (inactive)
9,CN(C)S(=O)(=O)c1cccc(CSc2nnc(-c3ccc4c(c3)OCO4)o2)c1,> 40000 nM (inactive)
10,Cc1cc2nc(CN(C)Cc3ncccc3C)[nH]c2cc1C,630 nM
11,CC(=O)Nc1nc(-c2cc(C)ccc2C)c(C)s1,> 40000 nM (inactive)
12,C[C@@H](Oc1cc(-n2cnc3ccc(C(O)CO)cc32)sc1C(N)=O)c1ccccc1C(F)(F)F (stereo not given in full),790 nM
13,CCOc1ccc(CC(=O)N2c3ccccc3CC2C(=O)NC)cc1 (stereo not given),500 nM
14,Cc1[nH]n2c(=O)c3c(nc2c1-c1ccc(Br)cc1)CCCC3,790 nM
15,CN(C)CCOc1ccc(N2CCN(S(=O)(=O)c3ccc(Cl)cc3)CC2)cc1,25000 nM
16,COc1ccc(S(=O)(=O)Nc2ccc(CN3CCN(C(=O)c4cccc(C#N)c4)CC3)cc2)cc1,630 nM
17,O=C(Nc1ccc(Br)cn1)c1ccc(Cn2cnc([N+](=O)[O-])n2)cc1,3200 nM
18,COc1ccc(-c2nc3ccncc3c(=O)n2CCOc2ccccc2)cc1,32000 nM
19,O=C(CN(Cc1ccccn1)Cc1ccccn1)NCc1csc(-c2cccs2)n1,16000 nM
20,CCc1cccc(-n2nc(OCC(=O)NC3CCCC3)c3cccnc32)c1,> 40000 nM (inactive)
21,COc1ccc(-c2ccc3nnc(-c4ccc(O)c(OC)c4)n3c2)cn1,2500 nM
22,Cc1ccc2onc(Nc3ccnc(Nc4cccc(S(C)(=O)=O)c4)n3)c2c1,7900 nM
23,O=C(Nc1nc(-c2ccccn2)cs1)c1ccc(S(=O)(=O)N2CCCCC2)cc1,630 nM
24,Cc1ccc(NC(=O)c2ccnc(N3CCCC3)c2)cc1-c1ccsc1C(N)=O,63 nM
25,C[C@@H](Oc1cc(-n2cnc3ccc(O[C@H]4CCNC4)cc32)sc1C(N)=O)c1ccccc1Cl,790 nM

row,Compound,IC50
1,NCC(Cc1ccccc1)NC(=O)c1cnc(-c2c[nH]c3ncccc23)s1 (stereo not given),1000 nM
2,Cc1cc(C)n(-c2nc(NC(C)(C)C)nc(N3CCOCC3)n2)n1,4000 nM
3,Cc1nc(C(=O)Nc2ccc3c(c2)OCO3)nn1-c1ccc(Cl)cc1,> 40000 nM (inactive)
4,O=C(CN(Cc1ccccn1)Cc1ccccn1)NCc1ccc(-c2csnn2)cc1,7900 nM
5,CCOc1cnn(C)c(=O)c1Nc1ccc(C(=O)NCc2ccc(F)cc2)cc1,> 40000 nM (inactive)
6,COCCn1cnc2cc(NC(=O)C3CCCCC3)cc(C(=O)N3CCc4sccc4C3)c21,1000 nM
7,COc1ccc(-c2cc(C)no2)cc1S(=O)(=O)Nc1ccc(F)c(Cl)c1,25000 nM
8,Cc1ccc(S(C)(=O)=O)cc1Nc1nccc(-c2sc(N)nc2-c2ccccc2)n1,1600 nM
9,CNC(=O)C1Cc2ccccc2N1C(=O)Cc1ccc(OC)cc1 (stereo not given),500 nM
10,COc1ccc(Cl)cc1CC(=O)Nc1n[nH]c(-c2ccccn2)n1,> 40000 nM (inactive)
11,CN(Cc1ccccc1)Cc1nnnn1C1CCN(Cc2ccc(-n3ccnc3)cc2)CC1,> 40000 nM (inactive)
12,CCOC(=O)c1cn[nH]c1S(=O)(=O)N1CCC1c1ccccc1 (stereo not given),790 nM
13,CC(C)C[C@H](NC(=O)c1ccc(-c2ccccc2)o1)C(=O)NC1(C#N)CC1,50 nM
14,CN1CCCN(C(=O)c2ccc(N3CCCC3)cc2Cl)CC1,> 40000 nM (inactive)
15,O=c1ccc2ccc(F)c3c2n1C[C@H]3CN1CCC(NCc2cc3ccccc3o2)CC1,2000 nM
16,O=C(COc1ncnc2cc([N+](=O)[O-])ccc12)NC(=O)NC1CCCCC1,> 40000 nM (inactive)
17,O=c1oc2ccccc2n1C1CCN(Cc2ccccc2-c2cccnc2)CC1,> 40000 nM (inactive)
18,O=C(Cc1ccccc1)Nc1ccccc1C(=O)Nc1nccs1,250 nM
19,Cn1nccc1-c1cc(OC(CN)c2ccccc2)cnc1-c1ccco1 (stereo not given),16000 nM
20,Cc1cc(NC(=O)C2CCCCC2)n(-c2nc3c(c(=O)[nH]2)CCC3)n1,160 nM
21,c1ccc(Nc2nc(-c3ccccn3)cc(N3CCOCC3)n2)cc1,13000 nM
22,Clc1ccc(C(CC2CCCCO2)Cn2cncn2)c(Cl)c1 (stereo not given),> 40000 nM (inactive)
23,O=C1NCCn2ccc(Nc3nc(NC4CCC(O)CC4)ncc3Cl)c21 (stereo not given),630 nM
24,Nc1ncnc2c1ncn2[C@@H]1O[C@H](CO)C[C@H]1O,10 nM
25,Cc1cccc(NS(=O)(=O)c2cnc3sc(C)cn3c2=O)c1,> 40000 nM (inactive)

row,Compound,IC50
1,O=C(Nc1cccc(S(=O)(=O)Nc2ccc(Br)cc2)c1)c1ccc([N+](=O)[O-])s1,400 nM
2,CCCNC(=O)Nc1cccc(-c2nc3ncccc3o2)c1,1000 nM
3,Cc1nn(-c2nc(N)nc(-c3ccccn3)n2)c(N)c1-c1ccccc1,6300 nM
4,CN(Cc1ccc(C(N)=O)cc1)C(c1ccc(F)cc1)c1cccnc1 (stereo not given),> 40000 nM (inactive)
5,COc1cc(-c2nc(N3CCOCC3)sc2-c2ccnc(NC3CCOCC3)n2)ccc1Cl,> 40000 nM (inactive)
6,Cc1ccc(NC(=O)c2ccc([N+](=O)[O-])s2)cc1S(=O)(=O)N1CCOCC1,790 nM
7,COc1cc2c(cc1OC)[C@H]1[C@@H](C)c3ccc(OC)c(OC)c3CN1CC2,> 40000 nM (inactive)
8,CCN(Cc1cccs1)C(=O)CSc1nnc(-c2ccc3c(c2)OCO3)o1,> 40000 nM (inactive)
9,CN1C(=O)c2ccccc2Sc2ccc(NC(=O)NCc3ccco3)cc21,500 nM
10,COc1cc(-c2noc(CC#N)n2)ccc1OC(F)F,630 nM
11,N#Cc1cccc(Cc2cc(Nc3cc(C4CC4)[nH]n3)nc(N3CC[C@H]3C(N)=O)n2)c1,63 nM
12,N#Cc1ccc(Br)cc1[N+](=O)[O-],200 nM
13,O=C(Nc1nc(-c2ccc(F)cc2)cs1)c1ccc([N+](=O)[O-])s1,1300 nM
14,Fc1ccc(OC2CC(NCc3cccc4cn[nH]c34)C2)cc1C(F)(F)F (stereo not given),10000 nM
15,O=C(Cc1ccccc1)Nc1[nH]nc2sc(C(=O)NC3CCCC3)cc12,320 nM
16,COc1cccc(C(=O)[C@H]2C[C@@H]2CN(Cc2cccnc2)Cc2cccnc2)c1,> 40000 nM (inactive)
17,N#Cc1cccc(Nc2nccc(N3CCC(NS(=O)(=O)c4cccc(C#N)c4)CC3)n2)c1,6300 nM
18,O=C(CN1CCN(c2ccccn2)CC1)Nc1cc(S(=O)(=O)N2CCCCCC2)ccc1Cl,25000 nM
19,COc1ccc(NS(=O)(=O)c2cc(NC(=O)Cc3ccc(C)cc3)ccc2N2CCOCC2)cc1,7900 nM
20,CC(c1ccc2c(c1)CCCC2)N(C)c1ncc2c(N)nc(N)nc2n1 (stereo not given),13000 nM
21,CCCCc1cc(Nc2cc(C3CCC3)[nH]n2)nc(N2CCC2C(N)=O)n1 (stereo not given),160 nM
22,O=C(c1cccc(Nc2ncc(-c3ccc4c(c3)OCO4)cn2)c1)N1CCOCC1,> 50000 nM (inactive)
23,Cc1cc(NC(=O)CC2CCCCC2)n(-c2nc3c(c(=O)[nH]2)CCC3)n1,160 nM
24,Cc1cc(Oc2cc(Cl)c(Cl)cc2Cl)n2ncnc2n1,400 nM
25,COc1ccc(Nc2nc(-c3ccccn3)cc(N3CCCC(O)C3)n2)cc1 (stereo not given),13000 nM
